Experimental data as given in patent US8198285B2, “Pyrazine derivatives” (Astrazeneca AB, priority 2010, dated 2012).
Counter-ions that a name gives are not always drawn.

Key:
rat bone marrow = system: rat bone marrow
Protocol: 3-amino-6-(4-{3-[(3-methoxypropyl)amino]propyl}phenyl)-N-pyridin-3-ylpyrazine-2-carboxamide mono-besylate was also tested in an in vivo rat genotoxicity micronucleus study. The objective of this study was to investigate whether two oral doses of 3-amino-6-(4-{3-[(3-methoxypropyl)amino]propyl}phenyl)-N-pyridin-3-ylpyrazine-2-carboxamide mono-besylate increased the frequency of micronucleated immature erythrocytes (MIE) in rat bone marrow.
3-amino-6-(4-{3-[(3-methoxypropyl)amino]propyl}phenyl)-N-pyridin-3-ylpyrazine-2-carboxamide mono-besylate was administered to groups of 7 male Wistar Han rats, approximately 10 weeks old at dosing. Groups were given two doses of 0, 25, 125 and 250 mg/kg free-base equivalent (0, 59.5, 297 and 595 umol/kg) 24 hours apart and sampled for bone marrow analysis 24 hours after the second dose. Control rats were dosed with vehicle, 0.5% w/v hydroxypropyl methylcellulose and 0.1% w/v polysorbate 80 in phosphate buffered saline.
Animals were sacrificed 24 hours after the second dose and bone marrow smears prepared, fixed and stained with acridine orange. For each animal, 2000 immature erythrocytes (IE) were scored for the incidence of micronucleated cells (MIE) and the ratio of IE to mature erythrocytes (E) was determined in 1000 cells. In order to act as a quality control procedure, 6 slides from the bone-marrow of rats treated with cyclophosphamide at 20 mg/kg (72 umol/kg) in a previous study were included with the slides from the treated animals prior to staining and coding.

human GSK3β enzyme = target: T1, human GSK3β enzyme (Homo sapiens, UniProt P49841); assay: In vitro GSK3β kinase assay (FRET, Z'-LYTE), Test (a); assay type: biochemical; conditions: read-out: IC50 versus human GSK3β enzyme
T1 construct: His6 (N); purchased Millipore 14-306; host or cells: baculovirus / Sf21 insect cells
Excerpt: This biochemical assay used a Fluorescence Resonance Energy Transfer (FRET)-based, coupled-enzyme format to determine the ability of test compounds to inhibit substrate phosphorylation by recombinant GSK3β serine/threonine kinase (Kleman-Leyer, K. et al. Drug Disc. Devel. 2003, 6:81-2). The substrate used in this assay was Z′-LYTE™ ser/Thr 9 peptide and the FRET assay kit was obtained from Invitrogen (Paisley, UK, catalogue number PV3324). N-terminal His6-tagged recombinant human GSK313, with an H350 L mutation, was expressed in baculovirus in Sf21 insect cells, purified and obtained from Millipore (Billerica, Mass., USA, catalogue number 14-306 Human).
Test compounds were prepared as 10 mM stock solutions in dimethylsulphoxide (DMSO) and diluted in DMSO as required. Aliquots (2.5 μl) of compound dilutions were added to the wells of an Optiplate-F PerkinElmer 384-well plate (Massachusetts, USA, catalogue number 6007270). Control wells that produced a maximum signal corresponding to maximum enzyme activity were created by using 100% phosphorylated peptide obtained from Invitrogen (Paisley, UK, catalogue number PV3326). A 5 μl aliquot of 100% phosphorylated peptide (100 μM in 1.33× kinase buffer) was added to all maximum control wells. 2.5 μl of 4% DMSO solution (v/v) in 1.33× kinase buffer was added to maximum control wells. Control wells that produced a minimum signal corresponding to 100% inhibited enzyme were created by adding 2.5 μl of 40 μM Staurosporine in 1.33× kinase buffer containing 4% DMSO (v/v). A 5 μl mixture of GSK3β (100 ng/μl) enzyme and non-phosphorylated substrate (Z-LYTE™ ser/Thr 9 peptide, 100 μM) in a 1.33× kinase buffer solution was added to each well except maximum control wells and the assay plate centrifuged at 270 g for 1 minute. The kinase buffer used 1.33× was obtained from Invitrogen (Paisley, UK, catalogue number PV3189) and contained 67 mM HEPES (pH 7.5), 13 mM MgCl2, 1.3 mM EGTA, 0.01% BRIJ-35. Then 2.5 μl adenosine triphosphate (28 μM) in kinase buffer was added per well, centrifuged at 270 g for 1 minute and then the assay plate was shaken for 1 hour at room temperature. A proprietary development solution was prepared by adding 58 μl of development reagent A (Invitrogen, Paisley, UK, catalogue number PV3297) to 2142 μl of development reagent B (Invitrogen, Paisley, UK, catalogue number P3127). […]
The resultant signals arising from laser light excitation at 400 nm were read using a Perkin Elmer Envision spectrophotometer (Perkin Elmer, Massachusetts, USA). […] A ratiometric method, which calculates the ratio (the Emission Ratio) of donor emission to acceptor emission after excitation of the donor fluorophore at 400 nm, quantitates reaction progress, as shown in the equation below. […]

[1] = system: β-catenin accumulation in the nucleus of murine C3H/10T1/2 cells; assay: Cellular beta-catenin stabilisation assay, Test (b); assay type: cell-based; conditions: Mus musculus, 24 hours, read-out: EC50 versus cellular β-catenin accumulation in the nucleus of murine C3H/10T1/2 cells
Protocol: This assay uses an imaging based approach to measure the ability of test compounds to promote Beta-catenin stabilisation in the nucleus of C3H10T1/2 cells. Beta-catenin stabilisation is an indicator of GSK3β inhibition.
A C3H10T1/2 mouse clone 8 fibroblast cell line (American Type Culture Collection (ATCC, USA; catalogue number CRL 226) was routinely maintained at 37° C. with 5% CO2 in Basal Medium Eagle (BME, Invitrogen; Paisley, UK; catalogue number 41010) containing 10% (v/v) foetal bovine serum (FBS, Invitrogen, Paisley; UK; catalogue number 10270) and 2 mM L-glutamine (Invitrogen, Paisley, UK; catalogue number 25030024). For the assay, the cells were detached from the culture flask with ‘Accutase’ (Innovative Cell Technologies Inc., San Diego, USA; catalogue number AT104) using standard tissue culture methods and re-suspended in assay media comprising of BME containing 5% (v/v) FBS and 2 mM L-glutamine to give 55,555 cells per ml. Then, 90 μl of this solution was seeded into each well of a clear-bottom 96 well tissue culture plate (Perkin Elmer Viewplate; catalogue number 6005182) using a Multidrop Combi Dispenser (Thermo Fisher Scientific, Loughborough, UK) to give 5,000 cells per well. Plates were incubated overnight at 37° C. with 5% CO2 to allow the cells to adhere to the wells. Test compounds were prepared as 10 mM stock solutions in dimethylsulphoxide (DMSO) (Sigma-Aldrich; Poole, UK, catalogue number 49442-9) and serially diluted in DMSO. A Multidrop Combi was used to dispense 245 μl of pre-warmed assay media into a 96 well plate (Thermo Fisher Scientific, Loughborough, UK; catalogue number 50823925) before 5 μl of serially diluted compound was added to this intermediate plate. After mixing, 10 μl of each compound concentration was added to the cell plates. The total dilution factor from DMSO stock was 500 times. Control cells received either DMSO (0.2% v/v final concentration) or 10 μM positive control compound. The cells were incubated for 24 hours at 37° C. with 5% CO2.
After compound treatment the cells were fixed by the addition of 100 μl of 8% w/v paraformaldehyde (Sigma-Aldrich, Poole, UK; catalogue number P6148), directly into the assay plate wells. The cells were incubated at ambient temperature with fixative for 30 minutes before washing 3 times with 100 μl phosphate-buffered saline (PBS, Sigma-Aldrich; catalogue number D8537). […] The cells were then washed 3 times in 100 μl of PBS before the plates were sealed ready for image capture. Fluorescent images were captured and quantified using the Incell Analyser 3000 (GE Healthcare, USA). […]

T1 sequence (P49841 whole entry): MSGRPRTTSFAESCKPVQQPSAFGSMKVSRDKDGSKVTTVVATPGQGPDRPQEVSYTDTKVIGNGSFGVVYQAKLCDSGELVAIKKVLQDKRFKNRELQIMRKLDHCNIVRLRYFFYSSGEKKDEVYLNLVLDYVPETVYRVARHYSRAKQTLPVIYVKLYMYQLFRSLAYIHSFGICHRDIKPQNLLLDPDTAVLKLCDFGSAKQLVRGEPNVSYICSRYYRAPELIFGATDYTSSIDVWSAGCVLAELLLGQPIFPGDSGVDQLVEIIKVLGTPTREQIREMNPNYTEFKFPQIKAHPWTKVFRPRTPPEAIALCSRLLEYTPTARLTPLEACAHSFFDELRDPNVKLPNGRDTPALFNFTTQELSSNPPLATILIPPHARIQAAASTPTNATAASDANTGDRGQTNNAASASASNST

| Compound | Maximum tolerated dose (highest dose) (rat bone marrow; two oral doses 24 hours apart, male Wistar Han rats) | Incidence of micronucleated immature erythrocytes (MIE) above the vehicle control (rat bone marrow; two oral doses up to 250 mg/kg free-base equivalent 24 hours apart, bone marrow 24 hours after second dose) | IC50 (human GSK3β enzyme) [nM] | EC50 [1] [nM] | Incidence of MIE compared with the vehicle control values (rat bone marrow; quality control slides, rats given 20 mg/kg in a previous study) |
| --- | --- | --- | --- | --- | --- |
| COCCCNCCCc1ccc(-c2cnc(N)c(C(=O)Nc3cccnc3)n2)cc1.O=S(=O)(O)c1ccccc1 [3-amino-6-(4-{3-[(3-methoxypropyl)amino]propyl}phenyl)-N-pyridin-3-ylpyrazine-2-carboxamide mono-besylate] | 250 mg/kg free-base equivalent | no biologically or statistically significant increases | – | – | – |
| COCCNCCCc1ccc(-c2cnc(N)c(C(=O)Nc3cccnc3)n2)cc1 [Example 5, 3-Amino-6-(4-{3-[(2-methoxyethyl)amino]propyl}phenyl)-N-pyridin-3-ylpyrazine-2-carboxamide tri-hydrochloride] | – | – | ~21 | ~902 | – |
| COCCCNCCc1ccc(-c2cnc(N)c(C(=O)Nc3cccnc3)n2)cc1 [Example 6, 3-Amino-6-(4-{2-[(3-methoxypropyl)amino]ethyl}phenyl)-N-pyridin-3-ylpyrazine-2-carboxamide] | – | – | ~48 | ~902 | – |
| COCCNCCc1ccc(-c2cnc(N)c(C(=O)Nc3cccnc3)n2)cc1 [Example 7, 3-Amino-6-(4-{2-[(2-methoxyethyl)amino]ethyl}phenyl)-N-pyridin-3-ylpyrazine-2-carboxamide tri-hydrochloride] | – | – | ~80 | ~3890 | – |
| O=P1(N(CCCl)CCCl)NCCCO1 (stereo not drawn) [cyclophosphamide, reference compound] | – | – | – | – | significantly increased |
